Series [1] concerns H9c2 cells. Briefly: Protective effect on IAA-induced H9c2 cell damage (MTT). The format is cell-based. To be noted: pre-treatment 1 hour, IAA 50 μM 4 hours, 490 nm, FIG. 16. As for the experimental part:
H9c2 cells were seeded in a 96-well plate and incubated for 24 hours at 37° C. in a 5% CO2 incubator. Then, 100 μL it of IND-023 in different concentrations was added and subjected to prepreparation for 1 hour. After induction with IAA (50 μM) for 4 hours, MTT was added, and the absorbance was measured at 490 nm with a microplate reader.

The subject of series [2] is H9c2 cells. Put plainly: Protective effect on A/R-induced H9c2 cell damage (MTT). The format is cell-based. To be noted: hypoxia 12 hours, reoxygenation 4 hours, 490 nm, FIG. 17. As for the experimental part:
H9c2 cells were seeded in a 96-well plate and incubated at 37° C. in a 5% CO2 incubator for 24 hours, and then hypoxia was indicated. IND-023 of the drug group was diluted with KRB buffer as an anoxic solution into desired concentrations. The model group, after added only KRB solution with 50 μL in each well, was placed into the hypoxic box to be incubated for 12 hours, whereas, the blank group, after the initial medium was replaced with serum-free high glucose DMEM, was placed into a normal incubator. After the end of hypoxia, the medium of the model group was changed to serum-free high glucose DMEM. The drug group was diluted with high-glucose DMEM to corresponding concentrations with 100 μL each well, and was placed in a normal incubator and cultured for 4 hours. After the end of reoxygenation, the existing medium was removed and MTT was added. After 4 hours, the OD value was measured at 490 nm to calculate cell viability.

Series [3] has as its system H9c2 cells. Put plainly: Protective effect on t-BHP-induced H9c2 cell injury (MTT). In kind it is cell-based. To be noted: pre-protected 1 hour, t-BHP 150 μM 12 hours, 490 nm, FIG. 18. As for the experimental part:
H9c2 cells were seeded in a 96-well plate in a density of 1×10^4 cells/well, and cultured in a DMEM complete medium for 24 hours. IND-023 was pre-protected for 1 hour, and then diluted t-BHP 150 μM with serum-free high glucose DMEM and induced for 12 hours. MTT (5 mg/mL) was added and cultured for 4 hours. Then, the medium was aspirated, and 100 μL, of DMSO was added to each well. The cells were homogenized by shaking in a shaking table and the absorbance was measured at a wavelength of 490 nm with a BioTek microplate reader to calculate the cell viability.

Series [4] relates to SD rat myocardial infarction model. Put plainly: SD rat myocardial infarction model. The format is in vivo. To be noted: 20 mg/kg via tail vein after modeling, read at 24 hours; FIG. 19. As for the experimental part:
A male SD rat was anesthetized with 2.5% isoflurane and fixed. Tracheotomy was performed, and the rat was connected to a ventilator and was cut at the position 0.5 cm on the left side of the sternal along the 2nd intercostal space and the 4th intercostal space 4. The subcutaneous tissue and muscle were bluntly dissected, and the chest was opened at the 4th intercostal space with forceps to expose the chest. The pericardium was carefully opened. The anterior descending branch of the left coronary artery was ligated with non-invasive suture needle No. 8 at the position of 2 to 3 mm from the lower edge of the left atrial appendage. The elevation of the ST segment of lead II ECG after the ligation was taken as an indication of a successful model. Throughout the experiment process, the rat was placed and kept warm on a 37° C. thermostatic table, and after waking up, the rat was placed into the original cage to continue feeding. After successful modeling, the rat was injected via tail vein for 15 min to give 20 mg/kg of IND-023 with a solution of 5% ethanol+5% polyethylene glycol+90% normal saline. […]

The conditions of series [5]: Wang Tingfang, Journal of Pharmaceutical Practice 2011; cited from earlier work.

In the case of `Cc1nc(COC(=O)C(O)Cc2ccc(O)c(O)c2)c(C)nc1COC(=O)C(O)Cc1ccc(O)c(O)c1` (centres unmarked) [IND-023], in the series with H9c2 cells [1], the “protective effect on IAA-induced H9c2 cell injury” value was “significant protective effect”. Moreover, the “protective effect on A/R-induced H9c2 cell injury” value in the series with H9c2 cells [2] was “significant protective effect”. Also, in the series with H9c2 cells [3], the “protective effect on t-BHP-induced H9c2 cell injury” value was “significant protective effect”. Moreover, the “protective effect on SD rat myocardial infarction model” value in series [4] is “protective effect”.

Regarding `O=C(O)[C@H](O)Cc1ccc(O)c(O)c1` [Danshensu, Tanshinol], the bioavailability in series [5] is recorded as 9.53-14.18%.

The values above are taken from patent US10703729B2, “Pyrazine derivative, and preparation method and medical use thereof” (GUANGZHOU MAGPIE PHARMACEUTICALS CO., LTD., priority 2015, dated 2020).
